Test results published in patent US11834467B2, “Substituted indazoles as hematopoietic progenitor kinase 1 (HPK1) inhibitors” (1ST Biotherapeutics, Inc., priority 2020, dated 2023).
pEC50: −log10 of the molar value. Where two headings read alike, the source gives them in different places.

System: human peripheral blood pan T cells
Test: IFNγ and IL-2 secretion analysis of human peripheral pan T cells
Format: cell-based
Conditions: CD3/CD28 stimulation, 100 nM Prostaglandin E2, 24 hr
Protocol: Human peripheral blood pan T cells were purchased from STEMCELL™ Technologies Inc. Human peripheral blood pan T cells were thawed and suspended in DMEM media (10% FBS and 100 Penicillin/Streptomycin). 8×10^4 T cells were seeded in 96-well plate and incubated with various concentration of compounds and 100 nM Prostaglandin E2 for 1 hr. T cells were stimulated with Dynabeads Human T-Activator CD3/CD28 (Life Technologies) at a 1:3 cells:beads ratio. […] Data were analyzed with an MESO Quickplex SQ120 (Mesoscale Discovery).

[1] = Homo sapiens, T-cell, 24 h, IFNγ secretion, read-out: IFNγ (EC50)
[2] = Homo sapiens, T-cell, 24 h, IL-2 secretion, read-out: IL-2 (EC50)

Compound	pEC50 [1]	pEC50 [2]	pEC50 (IFNγ secretion, read-out: IFNγ (EC50))
CCc1c(F)c(N(C)C)c2[nH]ncc2c1-c1ccc2nc(NC(=O)[C@@H]3C[C@@H]3F)cn2n1 [Example 7]	6.00 to 6.70	6.00 to 6.70	–
CCOc1c(F)c(CC)c(-c2ccc3nc(NC(=O)[C@@H]4C[C@@H]4F)cn3n2)c2cn[nH]c12 [Example 13]	6.00 to 6.70	6.00 to 6.70	–
CCN(C)c1c(F)c(C(F)(F)F)c(-c2cn3cc(NC(=O)[C@@H]4C[C@@H]4F)nc3cn2)c2cn[nH]c12 [Example 42]	> 6.70	6.00 to 6.70	–
CSc1c(F)c(Cl)c(-c2cn3cc(NC(=O)[C@@H]4C[C@@H]4F)nc3cn2)c2cn[nH]c12 [Example 38]	6.00 to 6.70	6.00 to 6.70	> 6.70
CCc1c(F)c(N(C)C)c2[nH]ncc2c1-c1cn2cc(NC(=O)[C@@H]3C[C@@H]3F)nc2cn1 [Example 26]	> 6.70	6.00 to 6.70	–
CCOc1c(F)c(CC)c(-c2cn3cc(NC(=O)[C@@H]4C[C@@H]4F)nc3cn2)c2cn[nH]c12 [Example 44]	> 6.70	6.00 to 6.70	–
CSc1c(F)c(SC)c2[nH]ncc2c1-c1cn2cc(NC(=O)[C@@H]3C[C@@H]3F)nc2cn1 [Example 27]	> 6.70	–	–
CC(C)c1c(F)c(Cl)c(-c2cn3cc(NC(=O)[C@@H]4C[C@@H]4F)nc3cn2)c2cn[nH]c12 [Example 64, (1S,2S)—N-(6-(5-chloro-6-fluoro-7-isopropyl-1H-indazol-4-yl)imidazo[1,2-a]pyrazin-2-yl)-2-fluorocyclopropane-1-carboxamide]	> 6.70	> 6.70	–
CN(C)c1c(F)c(C(F)(F)F)c(-c2cn3cc(NC(=O)[C@@H]4C[C@@H]4F)nc3cn2)c2cn[nH]c12 [Example 40]	> 6.70	6.00 to 6.70	–
CCN(C)c1c(F)c(Cl)c(-c2cn3cc(NC(=O)[C@@H]4C[C@@H]4F)nc3cn2)c2cn[nH]c12 [Example 41]	> 6.70	6.00 to 6.70	–
CN(c1c(F)c(Cl)c(-c2cn3cc(NC(=O)[C@@H]4C[C@@H]4F)nc3cn2)c2cn[nH]c12)C1CC1 [Example 58]	> 6.70	6.00 to 6.70	–
CCc1c(F)cc2[nH]ncc2c1-c1ccc2nc(NC(=O)[C@@H]3C[C@@H]3F)cn2n1 [Example 4]	> 6.70	6.00 to 6.70	–
CC(C)N(C)c1c(F)c(Cl)c(-c2cn3cc(NC(=O)[C@@H]4C[C@@H]4F)nc3cn2)c2cn[nH]c12 [Example 62]	> 6.70	6.00 to 6.70	–
CC(C)Nc1c(F)c(Cl)c(-c2cn3cc(NC(=O)[C@@H]4C[C@@H]4F)nc3cn2)c2cn[nH]c12 [Example 61, (1S,2S)—N-(6-(5-chloro-6-fluoro-7-(isopropylamino)-1H-indazol-4-yl)imidazo[1,2-a]pyrazin-2-yl)-2-fluorocyclopropane-1-carboxamide]	> 6.70	6.00 to 6.70	–
CN(C)c1c(F)c(Cl)c(-c2cn3cc(NC(=O)[C@@H]4C[C@@H]4F)nc3cn2)c2cn[nH]c12 [Example 33]	> 6.70	6.00 to 6.70	–
CCOc1c(F)c(Cl)c(-c2cn3cc(NC(=O)[C@@H]4C[C@@H]4F)nc3cn2)c2cn[nH]c12 [Example 34]	> 6.70	6.00 to 6.70	–
